Data as given in article PMC4549746, “Zearalenone in the Intestinal Tissues of Immature Gilts Exposed per os to Mycotoxins” (Toxins, 2015).
Like-named read-outs stand apart in the source and are kept apart here.

Assays:
[1] = Average daily gains and feed conversion of gilts during 42-day per os exposure; assay type: in vivo
Protocol: The animals were divided into an experimental group (E, n = 18) and a control group (C, n = 21). Group E animals were orally administered ZEN at 40 μg/kg BW. Group C pigs were fed a placebo. The animals were fed complete diets in a restricted feeding regimen (Table 1). The daily dose of ZEN (40 µg/kg BW) was administered to each animal individually, which corresponds to exposure to 957–1014 µg ZEN/kg of a complete diet, depending on daily feed intake. Zearalenone was biosynthesized, purified and standardized by the Department of Chemistry of the Poznań University of Life Sciences. The experiment covered a period of 42 days. The mycotoxin was administered per os daily, in gelatine capsules before the morning feeding. The ZEN dose was adjusted to the body weight of the experimental animals. The mycotoxin was administered in capsules to prevent problems associated with uneven feed intake. Mycotoxin samples were diluted in 300 μL of 96% ethyl alcohol (96% ethyl alcohol, SWW 2442-90, Polskie Odczynniki Chemiczne SA, Gliwice, Poland) to the required dose level (based on body weight). Final solutions were stored at room temperature for 12 h to evaporate the solvent. The animals were weighed every 7 days to update mycotoxin doses for each gilt. Three animals from the experimental group and the control group each were sacrificed on Days 1, 7, 14, 21, 28, 35 and 42 (a total of 6 gilts in each week of exposure), excluding day 1, when only 3 control group animals were scarified. Every week, tissue samples were collected from the porcine gastrointestinal tract (duodenum, first and middle sections, jejunum, ileum, cecum, ascending colon, transverse colon, descending colon, middle section, and the liver, left lobe). Tissue samples were collected from the whole intestinal cross-sections.

[2] = in vitro studies, cited from earlier work
[3] = Group E, ZEN 40 μg/kg BW daily per os, throughout the experiment (42 days)

C[C@H]1CCCC(=O)CCC/C=C/c2cc(O)cc(O)c2C(=O)O1 [ZEN, zearalenone]
differences in average daily gains between groups ([1]; Group E (ZEN 40 μg/kg BW daily per os) vs Group C (placebo)): No significant differences
average daily gains [1, 3]: 602 g
feed per kg of BW gain [1, 3]: 2.61 kg feed per kg of BW gain
ingested ZEN absorbed in the small intestine ([2]; ref 12): 55%
ingested ZEN absorbed in the small intestine ([2]; ref 26): 51%
